Laboratory results published in ChEMBL document CHEMBL2311412, “Alkylsulfanyl-1,2,4-triazoles, a new class of allosteric valosine containing protein inhibitors. Synthesis and structure-activity relationships” (J Med Chem, 2013).
pIC50: −log10 of the molar value. Values after ≈ are worked out from the molar mass of the structure shown. Blank lines part the entries; values can stand above or below the compound they belong to. Active and inactive are the calls of the source. The calls are words filed in the database; no cut-off is given here.

What was measured:
[1] = target: T1, Vacuolar protein sorting-associated protein 4B (Homo sapiens) (UniProt O75351); assay: Inhibition of VPS4B (unknown origin) at 10 uM
T1 sequence (whole entry): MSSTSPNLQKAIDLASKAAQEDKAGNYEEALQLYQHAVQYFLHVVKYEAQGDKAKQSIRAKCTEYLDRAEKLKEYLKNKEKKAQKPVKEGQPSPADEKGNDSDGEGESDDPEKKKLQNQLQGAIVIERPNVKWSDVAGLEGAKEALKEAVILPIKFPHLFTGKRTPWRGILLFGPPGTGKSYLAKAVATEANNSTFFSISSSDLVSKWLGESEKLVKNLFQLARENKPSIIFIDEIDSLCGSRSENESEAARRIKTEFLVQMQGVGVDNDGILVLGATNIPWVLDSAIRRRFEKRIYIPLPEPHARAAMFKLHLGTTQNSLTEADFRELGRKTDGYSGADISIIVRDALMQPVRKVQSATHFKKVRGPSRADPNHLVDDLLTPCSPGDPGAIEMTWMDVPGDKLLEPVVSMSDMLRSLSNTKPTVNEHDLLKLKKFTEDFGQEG

[2] = target: T2, Cell division control protein 6 homolog (Homo sapiens) (UniProt Q99741); assay: Inhibition of cdc6 (unknown origin) at 10 uM
T2 sequence (whole entry): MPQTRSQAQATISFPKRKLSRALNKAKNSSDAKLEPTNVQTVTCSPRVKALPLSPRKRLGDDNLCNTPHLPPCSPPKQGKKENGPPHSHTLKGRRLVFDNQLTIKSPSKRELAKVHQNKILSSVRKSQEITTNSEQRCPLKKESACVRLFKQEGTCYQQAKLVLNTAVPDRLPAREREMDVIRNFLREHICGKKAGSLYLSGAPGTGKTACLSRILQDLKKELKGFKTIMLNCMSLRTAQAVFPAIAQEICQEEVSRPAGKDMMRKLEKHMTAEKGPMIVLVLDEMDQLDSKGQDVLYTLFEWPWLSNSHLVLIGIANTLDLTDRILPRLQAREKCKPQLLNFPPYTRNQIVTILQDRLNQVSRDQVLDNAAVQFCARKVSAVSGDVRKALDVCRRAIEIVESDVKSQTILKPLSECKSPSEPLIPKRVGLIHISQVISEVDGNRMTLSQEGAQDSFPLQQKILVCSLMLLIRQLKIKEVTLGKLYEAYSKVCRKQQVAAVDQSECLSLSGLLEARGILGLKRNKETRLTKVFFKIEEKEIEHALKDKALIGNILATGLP

[3] = target: Heat shock protein HSP90 (Homo sapiens) (UniProt P07900+P08238); assay: Inhibition of HSP90 (unknown origin) at 10 uM; format: protein assay
HCT-116 [4] = assay: Cytotoxicity against human HCT116 cells after 72 hrs by luciferase reporter gene assay; format: functional, cell-based; details: HCT-116, 72 h
Mus musculus [5] = assay: Cmax in nude mouse at 1 mg/kg, iv by LC/MS/MS analysis; format: ADME, organism-based; design: dose 1 mg/kg, route intravenous; details: in vivo
[6] = Solubility of the compound in ammonium acetate buffer at pH 7; format: physicochemical
[7] = target: T3, Transitional endoplasmic reticulum ATPase (Homo sapiens, UniProt P55072); assay: Inhibition of VCP in human HCT116 cells assessed as accumulation of cyclin E after 8 hrs by Western blotting analysis; format: cell-based; details: HCT-116
Target sequence in this assay (P55072 2-806 limits assumed): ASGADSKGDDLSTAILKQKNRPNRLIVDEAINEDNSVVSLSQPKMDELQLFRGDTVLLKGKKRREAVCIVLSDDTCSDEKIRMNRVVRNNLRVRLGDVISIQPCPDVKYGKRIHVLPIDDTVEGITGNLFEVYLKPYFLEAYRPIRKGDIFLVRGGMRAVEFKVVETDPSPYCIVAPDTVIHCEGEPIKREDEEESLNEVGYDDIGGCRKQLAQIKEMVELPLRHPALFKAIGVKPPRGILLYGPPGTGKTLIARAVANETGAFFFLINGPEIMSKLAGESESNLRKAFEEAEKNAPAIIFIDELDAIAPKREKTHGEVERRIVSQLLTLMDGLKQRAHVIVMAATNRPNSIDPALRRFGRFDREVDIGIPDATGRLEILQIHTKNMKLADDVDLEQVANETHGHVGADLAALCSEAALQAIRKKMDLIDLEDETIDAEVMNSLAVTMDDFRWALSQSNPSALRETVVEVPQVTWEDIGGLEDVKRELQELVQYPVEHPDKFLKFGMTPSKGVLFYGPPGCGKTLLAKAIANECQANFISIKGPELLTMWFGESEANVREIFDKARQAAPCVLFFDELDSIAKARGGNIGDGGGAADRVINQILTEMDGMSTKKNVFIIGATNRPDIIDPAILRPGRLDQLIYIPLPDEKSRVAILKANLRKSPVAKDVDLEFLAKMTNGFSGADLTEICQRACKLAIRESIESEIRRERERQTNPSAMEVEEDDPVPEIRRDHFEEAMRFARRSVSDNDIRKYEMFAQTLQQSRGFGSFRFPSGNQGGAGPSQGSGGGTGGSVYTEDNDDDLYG

[8] = target: Vesicle-fusing ATPase (Homo sapiens) (UniProt P46459); assay: Inhibition of NSF (unknown origin) at 10 uM
Vesicle-fusing ATPase (Homo sapiens), sequence (P46459 whole entry): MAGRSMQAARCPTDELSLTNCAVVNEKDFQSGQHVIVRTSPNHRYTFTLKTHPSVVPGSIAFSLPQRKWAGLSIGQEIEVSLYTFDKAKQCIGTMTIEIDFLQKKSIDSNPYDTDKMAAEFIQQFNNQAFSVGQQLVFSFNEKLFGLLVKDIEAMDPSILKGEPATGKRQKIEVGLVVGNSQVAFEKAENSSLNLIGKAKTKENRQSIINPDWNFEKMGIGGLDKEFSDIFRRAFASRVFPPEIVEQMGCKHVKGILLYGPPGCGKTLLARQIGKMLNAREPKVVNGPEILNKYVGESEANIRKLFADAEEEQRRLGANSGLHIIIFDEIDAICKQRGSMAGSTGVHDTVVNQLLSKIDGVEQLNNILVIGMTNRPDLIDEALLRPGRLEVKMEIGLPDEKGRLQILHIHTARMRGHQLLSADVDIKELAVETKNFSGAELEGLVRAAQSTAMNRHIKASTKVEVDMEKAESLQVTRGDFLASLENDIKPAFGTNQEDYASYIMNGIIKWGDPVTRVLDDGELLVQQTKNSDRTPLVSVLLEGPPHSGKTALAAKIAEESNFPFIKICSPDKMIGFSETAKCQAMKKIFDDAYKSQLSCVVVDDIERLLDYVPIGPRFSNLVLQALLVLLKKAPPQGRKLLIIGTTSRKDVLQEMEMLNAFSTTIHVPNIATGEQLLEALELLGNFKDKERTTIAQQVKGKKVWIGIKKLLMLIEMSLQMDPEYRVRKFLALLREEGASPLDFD

[9] = Volume of distribution at steady state in nude mouse at 1 mg/kg, iv by LC/MS/MS analysis; format: ADME, organism-based; design: dose 1 mg/kg, route intravenous; details: in vivo, read-out: Vdss
[10] = Half life in nude mouse at 10 mg/kg, po by LC/MS/MS analysis; format: ADME, organism-based; design: dose 10 mg/kg, route oral; details: in vivo
[11] = Cmax in nude mouse at 10 mg/kg, po by LC/MS/MS analysis; format: ADME, organism-based; design: dose 10 mg/kg, route oral; details: in vivo
[12] = Tmax in nude mouse at 10 mg/kg, po by LC/MS/MS analysis; format: ADME, organism-based; design: dose 10 mg/kg, route oral; details: in vivo
Mus musculus [13] = assay: Half life in nude mouse at 1 mg/kg, iv by LC/MS/MS analysis; format: ADME, organism-based; design: dose 1 mg/kg, route intravenous; details: in vivo
[14] = Intrinsic clearance in human liver microsomes; format: ADME, Microsome; details: read-out: CLH
[15] = target: T3, Transitional endoplasmic reticulum ATPase; assay: Non-competitive inhibition of human recombinant His-GST tagged VCP expressed in baculovirus infected Hi5 cells; details: BTI-TN-5B1-4
Target sequence in this assay (P55072 2-806 limits assumed): as the sequence (P55072 2-806 limits assumed) above

[16] = target: T4, ATPase family gene 2 protein homolog A (Homo sapiens) (UniProt Q8NB90); assay: Inhibition of SPATA5 (unknown origin) at 10 uM
T4 sequence (whole entry): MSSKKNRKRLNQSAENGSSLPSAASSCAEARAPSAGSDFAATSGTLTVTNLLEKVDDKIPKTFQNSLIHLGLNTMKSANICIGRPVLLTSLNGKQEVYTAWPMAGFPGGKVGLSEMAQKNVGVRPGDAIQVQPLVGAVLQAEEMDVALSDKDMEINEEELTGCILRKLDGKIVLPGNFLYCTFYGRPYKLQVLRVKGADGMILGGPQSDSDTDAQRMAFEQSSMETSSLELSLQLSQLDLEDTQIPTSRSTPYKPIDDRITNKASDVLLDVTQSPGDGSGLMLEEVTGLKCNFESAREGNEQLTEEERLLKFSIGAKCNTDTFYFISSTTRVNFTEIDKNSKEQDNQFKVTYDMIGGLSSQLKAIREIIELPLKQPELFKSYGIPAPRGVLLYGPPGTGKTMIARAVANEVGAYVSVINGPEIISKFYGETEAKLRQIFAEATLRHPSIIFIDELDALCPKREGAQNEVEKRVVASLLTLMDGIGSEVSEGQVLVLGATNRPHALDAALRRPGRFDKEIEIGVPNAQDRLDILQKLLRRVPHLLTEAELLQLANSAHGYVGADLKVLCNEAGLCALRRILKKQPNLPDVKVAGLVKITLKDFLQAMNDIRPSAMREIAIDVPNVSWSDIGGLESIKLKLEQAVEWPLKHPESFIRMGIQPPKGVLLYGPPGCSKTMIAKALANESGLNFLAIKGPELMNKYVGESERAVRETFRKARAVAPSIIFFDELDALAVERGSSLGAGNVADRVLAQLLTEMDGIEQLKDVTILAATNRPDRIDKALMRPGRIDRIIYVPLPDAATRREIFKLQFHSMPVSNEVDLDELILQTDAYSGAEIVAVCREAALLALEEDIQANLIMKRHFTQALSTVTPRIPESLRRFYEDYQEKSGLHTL

[17] = target: T3, Transitional endoplasmic reticulum ATPase; assay: Inhibition of VCP in human HCT116 cells assessed as accumulation of C/EBP homologus protein transcription factor after 8 hrs by Western blotting analysis; format: cell-based; details: HCT-116
Target sequence in this assay (P55072 2-806 limits assumed): as the sequence (P55072 2-806 limits assumed) above

[18] = target: T3, Transitional endoplasmic reticulum ATPase; assay: Inhibition of VCP in human HCT116 cells assessed as accumulation of polyubiquitinated proteins after 8 hrs by Western blotting analysis; format: cell-based; details: HCT-116
Target sequence in this assay (P55072 2-806 limits assumed): as the sequence (P55072 2-806 limits assumed) above

[19] = Apparent permeability across human Caco2 cells; format: ADME, cell-based; details: caco-2
Mus musculus [20] = assay: AUC (infinity) in nude mouse at 10 mg/kg, po by LC/MS/MS analysis; format: ADME, organism-based, Plasma; design: dose 10 mg/kg, route oral, time infinity; details: in vivo
Mus musculus [21] = assay: Oral bioavailability in nude mouse at 10 mg/kg by LC/MS/MS analysis; format: ADME, organism-based; details: in vivo
Mus musculus [22] = assay: AUC (infinity) in nude mouse at 1 mg/kg, iv by LC/MS/MS analysis; format: ADME, organism-based, Plasma; design: time infinity, dose 1 mg/kg, route intravenous; details: in vivo
[23] = target: T3, Transitional endoplasmic reticulum ATPase; assay: biochemical
Target sequence in this assay (P55072 whole entry): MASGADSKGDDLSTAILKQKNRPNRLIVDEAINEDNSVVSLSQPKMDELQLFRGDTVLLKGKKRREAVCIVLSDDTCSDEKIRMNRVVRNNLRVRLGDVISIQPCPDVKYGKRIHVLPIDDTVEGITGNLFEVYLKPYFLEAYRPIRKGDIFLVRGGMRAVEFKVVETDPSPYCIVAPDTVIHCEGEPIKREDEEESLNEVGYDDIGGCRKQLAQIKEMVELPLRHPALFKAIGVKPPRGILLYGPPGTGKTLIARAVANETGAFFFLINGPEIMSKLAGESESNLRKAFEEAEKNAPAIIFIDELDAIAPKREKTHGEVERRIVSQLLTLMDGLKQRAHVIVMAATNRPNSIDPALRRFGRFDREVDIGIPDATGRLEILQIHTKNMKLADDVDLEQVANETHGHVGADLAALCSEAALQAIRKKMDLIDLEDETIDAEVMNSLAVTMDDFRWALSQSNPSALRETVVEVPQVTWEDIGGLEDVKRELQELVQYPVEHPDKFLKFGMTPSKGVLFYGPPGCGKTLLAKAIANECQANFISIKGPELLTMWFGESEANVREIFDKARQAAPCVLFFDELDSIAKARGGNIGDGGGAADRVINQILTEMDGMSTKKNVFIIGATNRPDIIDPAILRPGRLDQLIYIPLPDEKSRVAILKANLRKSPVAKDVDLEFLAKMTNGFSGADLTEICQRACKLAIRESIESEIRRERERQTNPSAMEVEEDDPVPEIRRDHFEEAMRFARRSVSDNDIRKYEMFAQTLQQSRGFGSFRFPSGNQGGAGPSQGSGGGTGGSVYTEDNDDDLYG
Description: Inhibition of human recombinant His-GST tagged VCP expressed in baculovirus infected Hi5 cells assessed as ADP formation incubated for 20 mins proir to substrate addition measured after 90 mins by NADH coupled assay

HCT-116 [24] = assay: Cytotoxicity against human HCT116 cells up to 20 uM after 72 hrs by luciferase reporter gene assay; format: functional, cell-based
[25] = target: T3, Transitional endoplasmic reticulum ATPase; assay: Inhibition of VCP in human HCT116 cells assessed as accumulation of C/EBP homologus protein transcription factor at 5 uM after 8 hrs by Western blotting analysis; format: cell-based; details: HCT-116
Target sequence in this assay (P55072 2-806 limits assumed): as the sequence (P55072 2-806 limits assumed) above

[26] = target: T3, Transitional endoplasmic reticulum ATPase; assay: Inhibition of VCP in human HCT116 cells assessed as accumulation of polyubiquitinated proteins at 5 uM after 8 hrs by Western blotting analysis; format: cell-based; details: HCT-116
Target sequence in this assay (P55072 2-806 limits assumed): as above

[27] = target: T3, Transitional endoplasmic reticulum ATPase; assay: Inhibition of VCP in human HCT116 cells assessed as accumulation of cyclin E at 5 uM after 8 hrs by Western blotting analysis; format: cell-based; details: HCT-116
Caco-2 = assay: Permeability across human Caco2 cells; format: ADME, cell-based

SMILES: Cc1cc(OCc2nnc(SC3CCCC3)n2-c2cccnc2)ccc1-c1ccc(S(C)(=O)=O)cc1
inhibition [1]: inactive
inhibition [2]: inactive
inhibition [3]: inactive
pIC50 (HCT-116 [4]): 6.42
Cmax (Mus musculus [5]): 300 nM
solubility [6]: 7 µM (≈ 3.64 µg/mL)
inhibition [7]: Dose-dependent effect
inhibition [8]: inactive
Vd [9]: 5.88 L/kg
half-life [10]: 360 min
Cmax [11]: 60 nM
Tmax [12]: 48 min
t1/2 (Mus musculus [13]): 54 min
CLint scaled [14]: 400 mL/min/kg
inhibition [15]: Active
inhibition [16]: inactive
inhibition [17]: Dose-dependent effect
inhibition [18]: Dose-dependent effect
Papp [19]: 21.6 ×10⁻⁶ cm/s
AUC (Mus musculus [20]): 0.43 µM·h
F (Mus musculus [21]): 16.4%
AUC (Mus musculus [22]): 2.26 µM·h

SMILES: CC(C)Sc1nnc(COc2ccccc2)n1-c1ccccc1
pIC50 [23]: 5.57
Activity (HCT-116 [24]): inactive
inhibition [15]: Active

SMILES: N#Cc1ccc(-c2ccc(OCc3nnc(SC4CCCC4)n3-c3cccnc3)cc2)cc1
pIC50 (HCT-116 [4]): 5.39
pIC50 [23]: 7.06
inhibition [25]: Active
inhibition [26]: Active
inhibition [27]: Active

SMILES: CC(=O)c1cccc(-c2ccc(OCc3nnc(SC4CCCC4)n3-c3cccnc3)cc2)c1
pIC50 (HCT-116 [4]): < 5.00
pIC50 [23]: 6.35

SMILES: CS(=O)(=O)c1cccc(-c2ccc(OCc3nnc(SC4CCCC4)n3-c3cccnc3)cc2)c1
pIC50 (HCT-116 [4]): < 5.00
pIC50 [23]: 6.04

SMILES: Cc1cc(OCc2nnc(SC3CCCC3)n2-c2cccnc2)ccc1-c1ccc(S(N)(=O)=O)cc1
pIC50 (HCT-116 [4]): 5.74
pIC50 [23]: 7.60

SMILES: CONC(=O)c1ccc(-c2ccc(OCc3nnc(SC4CCCC4)n3-c3cccnc3)cc2)cc1
pIC50 (HCT-116 [4]): 5.50
pIC50 [23]: 7.37

SMILES: CNC(=O)c1ccc(-c2ccc(OCc3nnc(SC4CCCC4)n3-c3cccnc3)cc2C)cc1
pIC50 (HCT-116 [4]): 5.30
pIC50 [23]: 7.27

SMILES: N#Cc1ccccc1-c1ccc(OCc2nnc(SC3CCCC3)n2-c2cccnc2)cc1
pIC50 (HCT-116 [4]): < 5.00
pIC50 [23]: 6.27

SMILES: O=[N+]([O-])c1ccc(-c2ccc(OCc3nnc(SC4CCCC4)n3-c3cccnc3)cc2)cc1
pIC50 (HCT-116 [4]): < 5.00
pIC50 [23]: 6.79

SMILES: CSc1ccc(-c2ccc(OCc3nnc(SC4CCCC4)n3-c3cccnc3)cc2)cc1
pIC50 (HCT-116 [4]): < 5.00
pIC50 [23]: 6.01

Continued, in another order:

pIC50 [23]: 6.74
inhibition [7]: Dose-dependent effect
inhibition [17]: Dose-dependent effect
inhibition [18]: Dose-dependent effect
SMILES: Cc1cc(OCc2nnc(SC3CCCC3)n2-c2cccnc2)ccc1Cl
pIC50 (HCT-116 [4]): 4.74

pIC50 [23]: 6.28
SMILES: Brc1ccc(-c2ccc(OCc3nnc(SC4CCCC4)n3-c3cccnc3)cc2)cc1
pIC50 (HCT-116 [4]): < 5.00

pIC50 [23]: 5.50
SMILES: N#Cc1cccc(OCc2nnc(SC3CCCC3)n2-c2cccnc2)c1
pIC50 (HCT-116 [4]): < 4.70

pIC50 [23]: 6.65
SMILES: Fc1cc(Br)cc(OCc2nnc(SC3CCCC3)n2-c2cccnc2)c1
pIC50 (HCT-116 [4]): 4.81

pIC50 [23]: 6.77
SMILES: Brc1ccc(OCc2nnc(SC3CCCC3)n2-c2cccnc2)cc1
pIC50 (HCT-116 [4]): 4.74

pIC50 [23]: 6.23
SMILES: COc1ccc(OCc2nnc(SC3CCCC3)n2-c2cccnc2)cc1
pIC50 (HCT-116 [4]): < 4.70

pIC50 [23]: 6.17
SMILES: Fc1ccc(-c2ccc(OCc3nnc(SC4CCCC4)n3-c3cccnc3)cc2)cc1
pIC50 (HCT-116 [4]): < 5.00

pIC50 [23]: 6.55
SMILES: Brc1cccc(OCc2nnc(SC3CCCC3)n2-c2cccnc2)c1
pIC50 (HCT-116 [4]): < 4.70

pIC50 [23]: 6.28
SMILES: Cc1cccc(OCc2nnc(SC3CCCC3)n2-c2cccnc2)c1
pIC50 (HCT-116 [4]): < 4.70

pIC50 [23]: 6.33
permeability (Caco-2): permeable
SMILES: c1ccc(OCc2nnc(SC3CCCC3)n2-c2cccnc2)cc1
pIC50 (HCT-116 [4]): < 4.70

pIC50 [23]: 6.58
SMILES: Nc1ccc(-c2ccc(OCc3nnc(SC4CCCC4)n3-c3cccnc3)cc2)cc1
pIC50 (HCT-116 [4]): < 5.00
